For orientation: IC50 means the concentration needed to halve the response being measured. One may read the EC50 as the concentration at which the effect is half-maximal. A low value points to an effect from little substance.

For 3 compounds, IC50 and EC50 results are on record in ChEMBL document CHEMBL1151095, “Anti-human immunodeficiency virus type-1 (HIV-1) and anti-hepatitis B virus (HBV) activities of (2,3-dideoxy-2-fluoro--L-threo-pentofuranosyl)nucleosides” (Bioorg Med Chem Lett, 1995).

SMILES strings stand for the structures. Bounds are passed on as bounds.

The subject of one assay is CCRF-CEM. Briefly: Cytotoxicity in CEM cells. In kind it is functional, cell-based. The settings on record: Homo sapiens.
For assay [1], the species on record is Homo sapiens. Briefly: Cytotoxicity in 2.2.15 cells. In kind it is functional, cell-based. The settings on record: HepG2 2.2.15.
Assay [2] can be described thus: Cytotoxicity in human peripheral blood mononuclear (PBM) cells. Format: functional, cell-based.
In the next assay the test system is Vero. Description: Cytotoxicity in Vero cells. In kind it is functional, cell-based. Conditions: Chlorocebus sabaeus.
Assay [3] is described as follows: In vitro anti-HIV activity was evaluated in human peripheral blood mononuclear (PBM) cells. Format: functional.
The species entered for assay [4] is Homo sapiens. Description: In vitro anti-HBV activity in 2.2.15 cells. Format: functional, cell-based. Conditions: HepG2 2.2.15.

Regarding `Nc1ncnc2c1ncn2[C@@H]1O[C@H](CO)C[C@@H]1F` [LODENOSINE], the IC50 was more than 100 µM in the assay on CCRF-CEM, more than 200 µM in the assay listed under Homo sapiens [1], more than 100 µM in assay [2] and more than 100 µM in the assay with Vero. Besides, the EC50 in assay [3] was 100 µM; in the assay filed under Homo sapiens [4] it was more than 10 µM.
On to `Nc1ccn([C@@H]2O[C@H](CO)C[C@@H]2F)c(=O)n1`, for which the IC50 was more than 100 µM in the assay with CCRF-CEM, more than 200 µM in the assay filed under Homo sapiens [1], more than 100 µM in assay [2] and more than 100 µM with Vero. Also, the EC50 in assay [3] came out at 16.2 µM; in the assay listed under Homo sapiens [4], 4 µM.
Compound `Cc1cn([C@H]2C[C@H](N=[N+]=[N-])[C@@H](CO)O2)c(=O)[nH]c1=O` [ZIDOVUDINE] registered a 50% inhibitory concentration (IC50) in assay [2] of more than 100 µM. The compound further yielded an EC50 in assay [3] of 0.004 µM.
